These results are taken from PubChem BioAssay (NCI).

What all share (assay): NCI anticancer screen, dose series, 48 h
Assay [1] concerns SNB-75 CNS.
Assay [2] has as its system HT29 colon.
The subject of assay [3] is IGROV1 ovarian.
The test system of assay [4] is A549 NSCLC.
For assay [5], the system named is BT-549 breast.
Assay [6] deals with MCF7 breast.
Assay [7] has as its system SN12C renal.
Assay [8] has as its system SR leukemia.
For assay [9], the system named is HCT-15 colon.
Assay [10] has as its system SF-268 CNS.

Structures are written as SMILES.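 Five concentrations, 48 hours, 96-well plates. At the GI50, growth is halved. TGI is the concentration that stops growth completely.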

For `C[n+]1c2cc(N)ccc2cc2ccc(N)cc21` (tested in a mixture with another compound), the GI50 is 0.314 µM in assay [1]; 0.431 µM in [2]; 0.14 µM in assay [3]; 0.0749 µM in assay [4]; 0.624 µM in assay [5]; 0.372 µM in assay [6]. The GI50 in [7] was 0.326 µM; in assay [8], 0.169 µM; in assay [9], 0.512 µM; in assay [10], 0.265 µM. Besides, the TGI came out at 1.38 µM in assay [1]; 3.87 µM in assay [2]; 1.48 µM in assay [3]; 10.1 µM in assay [4]; 5.25 µM in [5]; 17.9 µM in assay [6]. In addition, the TGI in assay [7] amounted to 1.75 µM; in [8] it was 0.537 µM; in assay [9], 4.71 µM; in [10] it was 1.29 µM.

In the case of `CCc1nc(-n2c(CC)nc3ccccc3c2=O)nc(N)c1-c1ccc(Cl)cc1`, the GI50 in [1] is > 100 µM; in assay [2], 16.2 µM; in assay [3] it was 48.5 µM; in assay [4], 2.38 µM; in [5], > 100 µM; in assay [6], > 50.9 µM. For the same compound, the GI50 is > 46.1 µM in [7], > 100 µM in assay [8], 8.91 µM in assay [9] and > 40.4 µM in [10]. Moreover, the TGI in [1], in [2], in assay [3], in assay [4], in assay [5] and in assay [6] was > 100 µM in each case. Also, the TGI in [7], in assay [8], in assay [9] and in [10] was > 100 µM in each case.

Consider `COc1ccc(S(=O)(=O)NC2=NCCN2C(=S)SN2CCn3c2nsc3=S)cc1OC`, for which the GI50 in assay [1] is 12.7 µM; in assay [2], 25.7 µM; in [3] it was 23.2 µM; in assay [4], 27.9 µM; in assay [5], 30.9 µM; in assay [6], 15.7 µM. Besides, the GI50 is 22.6 µM in assay [7], 22.6 µM in assay [8], 26.2 µM in assay [9] and 23.2 µM in [10]. The TGI is 46.4 µM in assay [1]; 94.4 µM in assay [2]; > 100 µM in assay [3]; > 100 µM in [4]; > 100 µM in assay [5]; 35.7 µM in [6]. Also, the TGI in assay [7] is 54.9 µM; in [8], > 100 µM; in assay [9], > 100 µM; in assay [10], 79.2 µM.

For `COc1cc(/C=C/C(=O)NC[C@]2(O)CCC3C4CCc5cc(O)ccc5C4CCC32C)ccc1O` (stereo not given in full), the GI50 was 42.5 µM in [1]; 3.68 µM in assay [2]; 10.9 µM in assay [3]; 7.64 µM in [4]; 5.54 µM in [5]; 13.4 µM in assay [6]. In addition, the GI50 in [7] is 25.4 µM; in assay [8], 1.53 µM; in [9], 7.41 µM; in [10], 96.1 µM. For the same compound, the TGI in [1] was > 100 µM; in [2], 28.6 µM; in assay [3], 62.7 µM; in assay [4] it was > 100 µM; in assay [5], 52.1 µM; in assay [6], > 100 µM. The TGI in [7] is > 100 µM; in [8], 59.7 µM; in [9] it was > 100 µM; in assay [10] it was > 100 µM.

For `Cc1c2cnccc2c(C)c2c1c1cc(C(=O)O)ccc1n2C`, the GI50 is 1.1 µM in assay [1]; 0.856 µM in [2]; 0.911 µM in assay [3]; 1.68 µM in assay [4]; 1.47 µM in assay [5]; 1.02 µM in [6]. For the same compound, the GI50 in assay [7] is 0.772 µM; in assay [8], 0.435 µM; in assay [9] it was 0.804 µM; in assay [10], 0.937 µM. Also, the TGI is 2.53 µM in assay [1]; 6.15 µM in assay [2]; 9.84 µM in [3]; 6.68 µM in assay [4]; 4.82 µM in assay [5]; 13.6 µM in [6]. The TGI in [7] was 10.2 µM; in assay [8], 3.98 µM; in assay [9], 7.82 µM; in [10] it was 4.81 µM.

Take `CCN1/C(=C/C=C/C=C/c2sc3ccccc3[n+]2CC)Sc2ccccc21`: the GI50 in [1] is 0.243 µM; in assay [2] it was 0.23 µM; in assay [3] it was 0.503 µM; in [4] it was 0.332 µM; in [5], 0.213 µM; in assay [6] it was 0.29 µM. The GI50 is 0.327 µM in assay [7], 0.0304 µM in [8], 1.22 µM in assay [9] and 0.431 µM in [10]. Further, the TGI in [1] is 1.47 µM; in assay [2], 1.2 µM; in [3], 2.14 µM; in assay [4], 2.59 µM; in [5] it was 1.18 µM; in assay [6], 1.3 µM. Moreover, the TGI in assay [7] is 1.76 µM; in [8], 1.02 µM; in assay [9] it was 4.7 µM; in assay [10], 1.62 µM.

Take `COc1cc([N+](=O)[O-])c(S(=O)(=O)O)cc1N`: the TGI in assay [1], in assay [2], in assay [3], in assay [4], in assay [5] and in assay [6] was > 100 µM throughout. The TGI in [7], in assay [8], in assay [9] and in assay [10] was > 100 µM each time.

Regarding `Nc1ccc(-c2ccc(Nc3cc(S(=O)(=O)O)c(N)c4c3C(=O)c3ccccc3C4=O)cc2)c(S(=O)(=O)O)c1`, the TGI in [1], in [2], in [3], in assay [4], in [5] and in [6] was > 100 µM each time. Also, the TGI in assay [7], in assay [8], in assay [9] and in [10] was > 100 µM in each case.
